We go through 28 compounds from patent publication US9969752B2, “Inhibitors of HIF prolyl hydroxylase” (MERCK SHARP & DOHME CORP., priority 2014, dated 2018).

T1 sequence (Q9GZT9 whole entry): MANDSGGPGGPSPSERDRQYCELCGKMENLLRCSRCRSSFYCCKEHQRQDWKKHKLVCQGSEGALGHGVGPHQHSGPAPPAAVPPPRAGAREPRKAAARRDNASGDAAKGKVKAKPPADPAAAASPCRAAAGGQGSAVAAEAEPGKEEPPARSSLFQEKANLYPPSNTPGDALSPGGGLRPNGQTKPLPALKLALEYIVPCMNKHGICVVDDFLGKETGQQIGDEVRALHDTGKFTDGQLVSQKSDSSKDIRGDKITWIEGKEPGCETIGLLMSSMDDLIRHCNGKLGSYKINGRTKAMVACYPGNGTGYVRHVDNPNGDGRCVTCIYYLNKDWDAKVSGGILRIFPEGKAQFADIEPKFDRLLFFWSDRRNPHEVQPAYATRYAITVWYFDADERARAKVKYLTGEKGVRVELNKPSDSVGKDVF

One assay has as its target T1, Human HIF-PHD2 (Homo sapiens, UniProt Q9GZT9).
T1 construct: FLAG-tagged full length PHD2 expressed in and purified from baculovirus-infected Sf9 cells; FLAG; made in house; host or cells: baculovirus-infected Sf9 cells
Put plainly: Inhibition of the hydroxylation of a HIF peptide by PHD2 (time resolved fluorescence, 384-well). The class given is biochemical. The note with it: FLAG-tagged full length PHD2; 0.2 μM 2-oxoglutarate, 0.5 μM HIF-1α peptide; 45 minutes at room temperature; read-out: Human HIF-PHD2 IC50. On the procedure:
To each well of a 384-well plate, 1 μL of test compounds in DMSO (final concentration ranging from 0.3 nM to 10 uM) were added into 20 μl of assay buffer (50 mM Tris pH 7.4/0.01% Tween-20/0.1 mg/ml bovine serum albumin/10 μM ferrous sulfate/1 mM sodium ascorbate/20 μg/ml catalase) containing 0.15 μg/ml FLAG-tagged full length PHD2 expressed in and purified from baculovirus-infected Sf9 cells. After a 5 min preincubation at room temperature, the enzymatic reactions were initiated by the addition of 4 μL of substrates {final concentrations of 0.2 μM 2-oxoglutarate and 0.5 μM HIF-1α peptide biotinyl-[…] […] After incubation for 45 minutes at room temperature, the reactions were terminated by the addition of a 25 μL quench/detection mix to a final concentration of 1 mM ortho-phenanthroline, 0.1 mM EDTA, 0.5 nM anti-(His)6 LANCE reagent (Perkin-Elmer Life Sciences), 100 nM AF647-labeled streptavidin (Invitrogen), and 2 μg/ml (His)6-VHL complex {S. Tan Protein Expr. Purif.
Turning to `Cc1ccc2c(O)c(C(=O)NCC(=O)O)c(=O)n3c2c1OC(c1ccc(C(F)(F)F)cc1)C3` (stereo not shown) [Example 25, 2-(7-Hydroxy-10-methyl-5-oxo-2-(4-(trifluoromethyl)phenyl)-3,5-dihydro-2H-[1,4]oxazino[2,3,4-ij]quinoline-6-carboxamido)acetic acid], the IC50 is 5.4 nM.

`O=C(O)CNC(=O)c1c(O)c2c(Br)ccc3c2n(c1=O)C(Cc1ccc(C(F)(F)F)cc1)CO3` (stereo not shown) [Example 26, 2-(8-bromo-7-hydroxy-5-oxo-3-(4-(trifluoromethyl)benzyl)-3,5-dihydro-2H-[1,4]oxazino[2,3,4-ij]quinoline-6-carboxamido)acetic acid]: the IC50 turned out to be 8.1 nM.

In the case of `O=C(O)CNC(=O)c1c(O)c2ccc(Br)c3c2n(c1=O)C(Cc1ccc(C(F)(F)F)cc1)CO3` (stereo not shown) [Example 27, 2-(10-Bromo-7-hydroxy-5-oxo-3-(4-(trifluoromethyl)benzyl)-3,5-dihydro-2H-[1,4]oxazino[2,3,4-ij]quinoline-6-carboxamido)acetic acid], the IC50 worked out at 5.7 nM.

Turning to `CS(=O)(=O)c1ccc2c3c1c(O)c(C(=O)NCC(=O)O)c(=O)n3C(Cc1ccc(C(F)(F)F)cc1)CO2` (stereo not shown) [Example 28, 2-(7-Hydroxy-8-(methylsulfonyl)-5-oxo-3-(4-(trifluoromethyl)benzyl)-3,5-dihydro-2H-[1,4]oxazino[2,3,4-ij]quinoline-6-carboxamido)acetic acid], the IC50 came out at 42 nM.

Consider `N#Cc1ccc2c3c1c(O)c(C(=O)NCC(=O)O)c(=O)n3C(Cc1ccc(C(F)(F)F)cc1)CO2` (stereo not shown) [Example 29, 2-(8-Cyano-7-hydroxy-5-oxo-3-(4-(trifluoromethyl)benzyl)-3,5-dihydro-2H-[1,4]oxazino[2,3,4-ij]quinoline-6-carboxamido)acetic acid], for which the IC50 was 1.3 nM.

Turning to `Cc1ccc2c3c1c(O)c(C(=O)NCC(=O)O)c(=O)n3C(Cc1ccc(C(F)(F)F)cc1)CO2` (stereo not shown) [Example 30, 2-(7-Hydroxy-8-methyl-5-oxo-3-(4-(trifluoromethyl)benzyl)-3,5-dihydro-2H-[1,4]oxazino[2,3,4-ij]quinoline-6-carboxamido)acetic acid], the IC50 amounted to 39 nM.

As to `CS(=O)(=O)c1ccc2c(O)c(C(=O)NCC(=O)O)c(=O)n3c2c1OCC3Cc1ccc(C(F)(F)F)cc1` (stereo not shown) [Example 31, 2-(7-Hydroxy-10-(methylsulfonyl)-5-oxo-3-(4-(trifluoromethyl)benzyl)-3,5-dihydro-2H-[1,4]oxazino[2,3,4-ij]quinoline-6-carboxamido)acetic acid], the IC50 stood at 1 nM.

For the compound `N#Cc1ccc2c(O)c(C(=O)NCC(=O)O)c(=O)n3c2c1OCC3Cc1ccc(C(F)(F)F)cc1` (stereo not shown) [Example 32, 2-(10-Cyano-7-hydroxy-5-oxo-3-(4-(trifluoromethyl)benzyl)-3,5-dihydro-2H-[1,4]oxazino[2,3,4-ij]quinoline-6-carboxamido)acetic acid], the IC50 stood at 1.3 nM.

In the case of `Cc1ccc2c(O)c(C(=O)NCC(=O)O)c(=O)n3c2c1OCC3Cc1ccc(C(F)(F)F)cc1` (stereo not shown) [Example 33, 2-(7-Hydroxy-10-methyl-5-oxo-3-(4-(trifluoromethyl)benzyl)-3,5-dihydro-2H-[1,4]oxazino[2,3,4-ij]quinoline-6-carboxamido)acetic acid], the IC50 was 17 nM.

In the case of `CC(=O)c1cc2c3c(c1)c(O)c(C(=O)NCC(=O)O)c(=O)n3C(Cc1ccc(C(F)(F)F)cc1)CO2` (stereo not shown) [Example 34, 2-(9-acetyl-7-hydroxy-5-oxo-3-(4-(trifluoromethyl)benzyl)-3,5-dihydro-2H-[1,4]oxazino[2,3,4-ij]quinoline-6-carboxamido)acetic acid], the IC50 was determined as 3.2 nM.

For `CC(O)c1cc2c3c(c1)c(O)c(C(=O)NCC(=O)O)c(=O)n3C(Cc1ccc(C(F)(F)F)cc1)CO2` (stereo not shown) [Example 35, 2-(7-Hydroxy-9-(1-hydroxyethyl)-5-oxo-3-(4-(trifluoromethyl)benzyl)-3,5-dihydro-2H-[1,4]oxazino[2,3,4-ij]quinoline-6-carboxamido)acetic acid], the IC50 stood at 12 nM.

For the compound `CC(C)(O)c1cc2c3c(c1)c(O)c(C(=O)NCC(=O)O)c(=O)n3C(Cc1ccc(C(F)(F)F)cc1)CO2` (stereo not shown) [Example 36, 2-(7-Hydroxy-9-(2-hydroxypropan-2-yl)-5-oxo-3-(4-(trifluoromethyl)benzyl)-3,5-dihydro-2H-[1,4]oxazino[2,3,4-ij]quinoline-6-carboxamido)acetic acid], the IC50 is 17 nM.

`N#Cc1ccc2c(O)c(C(=O)NCC(=O)O)c(=O)n3c2c1OCC3` [Example 37, 2-(10-cyano-7-hydroxy-5-oxo-3,5-dihydro-2H-[1,4]oxazino[2,3,4-ij]quinoline-6-carboxamido)acetic acid]: the IC50 was 1.5 nM.

Take `CS(=O)(=O)c1ccc2c(O)c(C(=O)NCC(=O)O)c(=O)n3c2c1OCC3` [Example 38, 2-(7-Hydroxy-10-(methylsulfonyl)-5-oxo-3,5-dihydro-2H-[1,4]oxazino[2,3,4-ij]quinoline-6-carboxamido)acetic acid]: the IC50 was determined as 1.6 nM.

As for `Cc1ccc2c(O)c(C(=O)NCC(=O)O)c(=O)n3c2c1OCC3` [Example 39, 2-(7-Hydroxy-10-methyl-5-oxo-3,5-dihydro-2H-[1,4]oxazino[2,3,4-ij]quinoline-6-carboxamido)acetic acid], the IC50 was determined as 12 nM.

For the compound `Cc1cc2c3c(c1)c(O)c(C(=O)NCC(=O)O)c(=O)n3CCO2` [Example 43, 2-(7-hydroxy-9-methyl-5-oxo-3,5-dihydro-2H-[1,4]oxazino[2,3,4-ij]quinoline-6-carboxamido)acetic acid], the IC50 came to 24 nM.

For `N#Cc1ccc2c(O)c(C(=O)NCC(=O)O)c(=O)n3c2c1CCC3` [Example 44, 2-(8-Cyano-1-hydroxy-3-oxo-3,5,6,7-tetrahydropyrido[3,2,1-ij]quinoline-2-carboxamido)acetic acid], the IC50 came out at 0.9 nM.

For the compound `CS(=O)(=O)c1ccc2c(O)c(C(=O)NCC(=O)O)c(=O)n3c2c1CCC3` [Example 45, 2-(1-Hydroxy-8-(methylsulfonyl)-3-oxo-3,5,6,7-tetrahydropyrido[3,2,1-ij]quinoline-2-carboxamido)acetic acid], the IC50 came to 1.1 nM.

`Cc1ccc2c(O)c(C(=O)NCC(=O)O)c(=O)n3c2c1CCC3` [Example 46, 2-(1-Hydroxy-8-methyl-3-oxo-3,5,6,7-tetrahydropyrido[3,2,1-ij]quinoline-2-carboxamido)acetic acid]: the IC50 amounted to 18 nM.

As for `N#Cc1cc2c3c(c1)c(O)c(C(=O)NCC(=O)O)c(=O)n3CCC2` [Example 48, 2-(9-Cyano-1-hydroxy-3-oxo-3,5,6,7-tetrahydropyrido[3,2,1-ij]quinoline-2-carboxamido)acetic acid], the IC50 amounted to 2.6 nM.

For `CS(=O)(=O)c1cc2c3c(c1)c(O)c(C(=O)NCC(=O)O)c(=O)n3CCC2` [Example 49, 2-(1-Hydroxy-9-(methylsulfonyl)-3-oxo-3,5,6,7-tetrahydropyrido[3,2,1-ij]quinoline-2-carboxamido)acetic acid], the IC50 is 1.4 nM.

On to `O=C(O)CNC(=O)c1c(O)c2ccnc3c2n(c1=O)CC(c1ccc(C(F)(F)F)cc1)O3` (stereo not shown) [Example 51, 2-(7-Hydroxy-5-oxo-2-(4-(trifluoromethyl)phenyl)-3,5-dihydro-2H-[1,4]oxazino[2,3,4-ij][1,7]naphthyridine-6-carboxamido)acetic acid], for which the IC50 stood at 13 nM.

With `N#Cc1ccc(C2Cn3c(=O)c(C(=O)NCC(=O)O)c(O)c4cc(C#N)cc(c43)O2)cc1` (stereo not shown) [Example 52, 2-(9-Cyano-2-(4-cyanophenyl)-7-hydroxy-5-oxo-3,5-dihydro-2H-[1,4]oxazino[2,3,4-ij]quinoline-6-carboxamido)acetic acid], the IC50 was determined as 0.5 nM.

Turning to `O=C(O)CNC(=O)c1c(O)c2cc(Br)cc3c2n(c1=O)CC(c1ccc(Br)cc1)O3` (stereo not shown) [Example 53, 2-(9-Bromo-2-(4-bromophenyl)-7-hydroxy-5-oxo-3,5-dihydro-2H-[1,4]oxazino[2,3,4-ij]quinoline-6-carboxamido)acetic acid], the IC50 came out at 3.5 nM.

Turning to `N#Cc1ccc(C2Cn3c(=O)c(C(=O)NCC(=O)O)c(O)c4c(C#N)ccc(c43)O2)cc1` (stereo not shown) [Example 54, 2-(8-Cyano-2-(4-cyanophenyl)-7-hydroxy-5-oxo-3,5-dihydro-2H-[1,4]oxazino[2,3,4-ij]quinoline-6-carboxamido)acetic acid], the IC50 stood at 1.1 nM.

For `O=C(O)CNC(=O)c1c(O)c2c(Br)ccc3c2n(c1=O)CC(c1ccc(Br)cc1)O3` (stereo not shown) [Example 55, 2-(8-Bromo-2-(4-bromophenyl)-7-hydroxy-5-oxo-3,5-dihydro-2H-[1,4]oxazino[2,3,4-ij]quinoline-6-carboxamido)acetic acid], the IC50 stood at 2.5 nM.

Staying with this assay, now noted: FLAG-tagged full length PHD2; 0.2 μM 2-oxoglutarate, 0.5 μM HIF-1α peptide; 45 minutes at room temperature; read-out: MS m/z (M + 1)+ and human HIF-PHD2 IC50.
On to `O=C(O)CNC(=O)c1c(O)c2ccc(-c3ccccc3)c3c2n(c1=O)CCO3` [Example 40, 2-(7-hydroxy-5-oxo-10-phenyl-3,5-dihydro-2H-[1,4]oxazino[2,3,4-ij]quinoline-6-carboxamido)acetic acid], for which the IC50 amounted to 1.6 nM.

Staying with this assay, now noted: Human HIF-PHD2 IC50, FLAG-tagged full length PHD2; 0.2 μM 2-oxoglutarate, 0.5 μM HIF-1α peptide; 45 minutes at room temperature.
For `O=C(O)CNC(=O)c1c(O)c2cc(Br)cc3c2n(c1=O)CCC3` [Example 47, 2-(9-Bromo-1-hydroxy-3-oxo-3,5,6,7-tetrahydropyrido[3,2,1-ij]quinoline-2-carboxamido)acetic acid], the IC50 is 99 nM.
